Measurements: patent US20030176511A1, “Compositions and methods for treating cardiovascular disorders” (priority 2000, published 2003)

Experiments:
α-tocopheroxyl radical = experiment: Tocopheroxyl radical attenuating ability (TRAA); type: biochemical; settings: kobs in presence (+) or absence (−) of test compound
[1] = tested on: atherosclerosis in apoE−/−;LDLr−/− mice; experiment: Atherosclerosis (intima volume, descending thoracic aorta) in apoE−/−;LDLr−/− mice; type: in vivo; settings: bisphenol for 14 weeks, compared with age-matched controls
Method: Lesion formation was assessed by changes to intima volume when compared with young and age-matched controls receiving standard chow for 8 and 22 weeks, respectively. *Denotes a statistically significant difference with α<0.025 (Wilcoxon test).
Aortic lesions were assessed in segments centered around the third pair of intercostal artery branches in the descending thoracic aorta. Briefly, the fixed aortas were dehydrated in ethanol, cleared with xylene and embedded in paraffin. Serial sections (10 in total; each 2-3 μm thick and 100 μm apart) were cut and stained using Weigerts hematoxylin-van Gieson. Aortic thickening was assessed as the total volume of intima in the segment investigated in bisphenol-treated versus control samples.
Aortic volumes were determined by planimetry, using a Lucivid device (MicroBrightField, Colchester, Vermont, […]) attached to a Leitz DRM microscope that allowed the superposition of a computer monitor onto the cross sectional image.

[2] = tested on: plasma lipid peroxidation; experiment: Ex vivo peroxyl radical (AAPH)-induced lipid peroxidation of plasma from apoE−/−;LDLr−/− mice; type: in vivo; settings: pooled plasma of bisphenol-treated mice, 5 mM AAPH, 37° C.
Method: Pooled plasma obtained from at least 3 mice receiving control diet (circles) or diet supplemented with bisphenol (squares) were treated with 5 mM AAPH and incubated at 37° C. At the times indicted aliquots were removed and analysed for α-TOH (A) and CE-O(O)H (B). 100% α-TOH levels correspond to 28±3 and 20±2 μM for control and H 212/43 plasma, respectively. Data represents the mean±SD (n=4 independent experiments).
Oxidation of plasma, pooled from=3 mice was carried out by addition of the peroxyl radical generator (final concentrations 5 mM) and incubating the reaction mixture at 37° C. under air. Aliquots (50 μL) of the reaction mixture were removed, extracted in methanol/hexane (1:5, v/v), and the consumption of antioxidants and accumulation of lipid oxidation products determined.
Analyses of oxidised and non-oxidised lipids were carried out by RP-HPLC as described in Example 1 except that in some instances UV234 nm rather than post-column chemiluminescence detection was used to measure C18:2-OOH and the corresponding hydroxides (together referred to as CE-O(O)H) which show similar retention times under these chromatographic conditions. α-TQ, α-TOH, α-tocotrienol, D-isosascorbate and ascorbate were determined by HPLC with electrochemical detection. […] All compounds were quantified by peak area comparison with authentic standards. […]

[3] = tested on: aortic lipoprotein lipid peroxidation; experiment: Aqueous and lipophilic parameters of apoE−/−;LDLr−/− mouse aortae; type: in vivo, mice
Method: Pooled aortas from 7-8 mice obtained from control or bisphenol-treated mice were homogenized, the lipid extracted and subjected to HPLC with post-column chemiluminescence detection for analysis of cholesteryl ester hydroperoxides (CE-OOH). Chromatograms correspond to aortas of age-matched control (a or b) or drug-treated mice with low or high plasma levels of bisphenol (c and d, respectively). Under the conditions used, CE-OOH eluted between 8 and 9.5 min. The chemiluminescence negative peaks between 4 and 5.5 min correspond to the elution of tocopherols.
Male apoE−/−;LDLr−/− mice (59 total), were maintained on standard R3 chow from weaning to 8 weeks of age (young controls, n=9). […]
Analyses of oxidised and non-oxidised lipids were carried out by RP-HPLC as described in Example 1 except that in some instances UV234 nm rather than post-column chemiluminescence detection was used to measure C18:2-OOH and the corresponding hydroxides (together referred to as CE-O(O)H) which show similar retention times under these chromatographic conditions. α-TQ, α-TOH, α-tocotrienol, D-isosascorbate and ascorbate were determined by HPLC with electrochemical detection. For oxidation of plasma, unesterified cholesterol (which remained non-oxidised in these experiments) was employed as internal standard for all polyunsaturated, lipid-soluble components analysed. […]

[4] = tested on: tocopherol-mediated peroxidation (TMP); experiment: Anti-TMP index; type: biochemical

In the case of `CC(C)(C)c1cc(-c2cc(C(C)(C)C)c(O)c(C(C)(C)C)c2)cc(C(C)(C)C)c1O` [Bisphenol], the “TRAA (decay of α-tocopheroxyl radical; kobs(+)/kobs(−))” value (α-tocopheroxyl radical) is reported as “Immediate decay”, the “lesion size (intimal volume, descending thoracic aorta)” value [1] is reported as “substantially decreased the lesion size” and the “CE-OOH detected after 12 h of oxidation” value [2] is reported as under 1 µM. For the same compound, the “α-TOH after 12 h of oxidation” value [2] was “remained unaltered”, the “level of oxidised lipids in aortas, fold lower than control” value ([3]; drug-treated animals with high plasma levels of bisphenol) was 1000 fold and the “level of oxidised lipids in aortas, fold lower than control” value ([3]; drug-treated animals with low plasma levels of bisphenol) was 10 fold. The Anti-TMP index [4] was 3.2.
